Assays:
[1] = target: T1, human TLR7 (Homo sapiens, UniProt Q9NYK1); test: Human TLR7 agonist (reporter) activity assay, HEK-Blue TLR7 cells, SEAP reporter; format: cell-based; conditions: 18 h treatment, average where assay was performed multiple times, read-out: hTLR7 Agonism EC50
T1 construct: host or cells: HEK-Blue TLR7 cells (engineered human embryonic kidney cells)
T1 sequence (Q9NYK1 27-1049): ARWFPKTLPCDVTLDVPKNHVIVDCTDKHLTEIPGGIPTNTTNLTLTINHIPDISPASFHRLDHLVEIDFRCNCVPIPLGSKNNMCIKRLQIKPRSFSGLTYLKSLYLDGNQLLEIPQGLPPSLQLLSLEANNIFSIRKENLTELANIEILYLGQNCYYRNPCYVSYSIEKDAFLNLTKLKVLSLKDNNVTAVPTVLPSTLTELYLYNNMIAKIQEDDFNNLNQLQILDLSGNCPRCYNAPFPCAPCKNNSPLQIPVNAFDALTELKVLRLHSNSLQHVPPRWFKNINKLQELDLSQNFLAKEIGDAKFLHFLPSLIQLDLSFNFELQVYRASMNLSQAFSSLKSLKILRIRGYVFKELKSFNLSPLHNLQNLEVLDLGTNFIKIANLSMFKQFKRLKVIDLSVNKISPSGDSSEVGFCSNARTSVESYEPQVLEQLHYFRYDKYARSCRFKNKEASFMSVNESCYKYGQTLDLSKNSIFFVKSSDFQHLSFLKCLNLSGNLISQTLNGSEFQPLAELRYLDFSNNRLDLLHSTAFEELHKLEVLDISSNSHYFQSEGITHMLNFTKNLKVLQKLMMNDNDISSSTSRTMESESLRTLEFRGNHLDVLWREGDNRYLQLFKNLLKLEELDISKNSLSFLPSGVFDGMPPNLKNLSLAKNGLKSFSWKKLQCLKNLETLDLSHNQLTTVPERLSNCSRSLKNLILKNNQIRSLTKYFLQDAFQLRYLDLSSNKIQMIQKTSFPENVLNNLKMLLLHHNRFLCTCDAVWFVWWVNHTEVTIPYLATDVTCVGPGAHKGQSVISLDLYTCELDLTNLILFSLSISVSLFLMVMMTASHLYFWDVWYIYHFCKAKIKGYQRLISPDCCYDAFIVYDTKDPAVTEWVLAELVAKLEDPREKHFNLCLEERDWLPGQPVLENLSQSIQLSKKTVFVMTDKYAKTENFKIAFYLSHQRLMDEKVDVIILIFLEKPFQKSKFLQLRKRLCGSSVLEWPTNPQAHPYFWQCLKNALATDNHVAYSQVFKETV
Procedure: This procedure describes a method for assaying human TLR7 (hTLR7) agonist activity of the compounds disclosed in this specification.
HEK-Blue™ TLR7 cells were added to each well of a 384-well tissue-culture plate (15,000 cells per well) and incubated 16-18 h at 37° C., 5% CO2. Compounds (100 nl) were dispensed into wells containing the HEK-Blue™ TLR cells and the treated cells were incubated at 37° C., 5% CO2. After 18 h treatment ten microliters of freshly-prepared Quanti-Blue™ reagent (Invivogen) was added to each well, incubated for 30 min (37° C., 5% CO2) and SEAP levels measured using an Envision plate reader (OD=620 nm). The half maximal effective concentration values (EC50; compound concentration which induced a response halfway between the assay baseline and maximum) were calculated.

[2] = system: CD69; test: Induction of CD69 in human whole blood; format: cell-based; conditions: 17 hrs, CD69 surface staining, 100% set to 1 uM of resiquimod, average where assay was performed multiple times, read-out: hWB CD69 EC50
Procedure: The induction of Type I interferon (IFN) MX-1 genes and the B-cell activation marker CD69 are downstream events that occur upon activation of the TLR7 pathway. The following is a human whole blood assay that measures their induction in response to a TLR7 agonist.
Heparinized human whole blood was harvested from human subjects and treated with test TLR7 agonist compounds at 1 mM. The blood was diluted with RPMI 1640 media and Echo was used to predot 10 nL per well giving a final concentration of 1 uM (10 nL in 10 uL of blood). After mixing on a shaker for 30 sec, the plates were covered and placed in a 37° C. chamber for o/n=17 hrs. Fixing/lysis buffer was prepared (5×→1× in H2O, warm at 37° C.; Cat # BD 558049) and kept the perm buffer (on ice) for later use.
For surface markers staining (CD69): prepared surface Abs: 0.045 ul hCD14-FITC (ThermoFisher Cat # MHCD1401)+0.6 ul hCD19-ef450 (ThermoFisher Cat #48-0198-42)+1.5 ul hCD69-PE (cat # BD555531)+0.855 ul FACS buffer. Added 3 ul/well, spin1000 rpm for 1 min and mixed on shaker for 30 sec, put on ice for 30 mins. Stop stimulation after 30 minutes with 70 uL of prewarmed 1× fix/lysis buffer and use Feliex mate to resuspend (15 times, change tips for each plate) and incubate at 37 C for 10 minutes.
Centrifuge at 2000 rpm for 5 minutes aspirate with HCS plate washer, mix on shaker for 30 sec and then wash with 70 uL in dPBS and pelleted 2×s (2000 rpm for 5 min) and 50 ul wash in FACS buffer pelleted 1×s(2000 rpm for 5 min). Mix on shaker for 30 sec. For Intracellular markers staining (MX-1): Add 50 ul of BD Perm buffer III and mix on shaker for 30 sec. Incubate on ice for 30 minutes (in the dark). Wash with 50 uL of FACS buffer 2× (spin @2300 rpm×5 min after perm) followed by mixing on shaker for 30 sec. Resuspended in 20 ul of FACS buffer containing MX1 antibody ( )(4812)-Alexa 647: Novus Biologicals #NBP2-43704AF647) 20 ul FACS bf+0.8 ul hlgG+0.04 ul MX-1. Spin 1000 rpm for 1 min, mix on shaker for 30se and the samples were incubated at RT in the dark for 45 minutes followed by washing 2×FACS buffer (spin @2300 rpm×5 min after perm). Resuspend 20 ul (35 uL total per well) of FACS buffer and cover with foil and place in 4° C. to read the following day. Plates were read on iQuePlus. The results were loaded into toolset and […] curves are generated in curve master. The y-axis 100% is set to 1 uM of resiquimod.

`COc1cc(CN2CCN(C)CC2)ccc1Cn1nc(C)c2nc(N)nc(NCc3cc(C)on3)c21` [Compound 113, 1-({2-methoxy-4-[(4-methylpipeazin-1-yl)methyl]phenyl}methyl)-3-methyl-N7-[(5-methyl-1,2-oxazol-3-yl)methyl]-1H-pyrazolo[4,3-d]pyrimidine-5,7-diamine] gave an EC50 [1] of 100 nM and an EC50 [2] of 40.5 nM.
Molecule `COc1cc(CNC2CCOCC2)ccc1Cn1ncc2nc(N)nc(NCc3noc(C)n3)c21` [Compound 114, 1-[(2-methoxy-4-{[(oxan-4-yl)amino]methyl}phenyl)methyl]-N7-[(5-methyl-1,2,4-oxadiazol-3-yl)methyl]-1H-pyrazolo[4,3-d]pyrimidine-5,7-diamine] has an EC50 [1] of 79.1 nM and an EC50 [2] of 19.6 nM.
In the case of `COc1cc(CN2CCN(C)CC2)ccc1Cn1ncc2nc(N)nc(NCc3noc(C)n3)c21` [Compound 115, 1-({2-methoxy-4-[(4-methylpiperazin-1-yl)methyl]phenyl}methyl)-N7-[(5-methyl-1,2,4-oxadiazol-3-yl)methyl]-1H-pyrazolo[4,3-d]pyrimidine-5,7-diamine], the EC50 [1] is reported as 67.2 nM and the EC50 [2] is reported as 15.5 nM.
`COc1cc(CN2CCN(CCO)CC2)ccc1Cn1ncc2nc(N)nc(NCc3noc(C)n3)c21` [Compound 117, 2-[4-({4-[(5-amino-7-{[(5-methyl-1,2,4-oxadiazol-3-yl)methyl]amino}-1H-pyrazolo[4,3-d]pyrimidin-1-yl)methyl]-3-methoxyphenyl}methyl)piperazin-1-yl]ethan-1-ol] was tested, and the EC50 [1] was 18.6 nM and the EC50 [2] was 1.4 nM.
With `COc1cc(CN2CC(OC)C2)ccc1Cn1ncc2nc(N)nc(NCc3noc(C)n3)c21` [Compound 118, 1-({2-methoxy-4-[(3-methoxyazetidin-1-yl)methyl]phenyl}methyl)-N7-[(5-methyl-1,2,4-oxadiazol-3-yl)methyl]-1H-pyrazolo[4,3-d]pyrimidine-5,7-diamine] the EC50 [1] was 47.9 nM and the EC50 [2] was 4.3 nM.
With `COc1cc(CN2CCC(S(C)(=O)=O)CC2)ccc1Cn1ncc2nc(N)nc(NCc3noc(C)n3)c21` [Compound 119, 1-({4-[(4-methanesulfonylpiperidin-1-yl)methyl]-2-methoxyphenyl}methyl)-N7-[(5-methyl-1,2,4-oxadiazol-3-yl)methyl]-1H-pyrazolo[4,3-d]pyrimidine-5,7-diamine] the EC50 [1] was 298 nM and the EC50 [2] was 34.7 nM.
With `COc1cc(CN2CCN(S(C)(=O)=O)CC2)ccc1Cn1ncc2nc(N)nc(NCc3noc(C)n3)c21` [Compound 120, 1-({4-[(4-methanesulfonylpiperazin-1-yl)methyl]-2-methoxyphenyl}methyl)-N7-[(5-methyl-1,2,4-oxadiazol-3-yl)methyl]-1H-pyrazolo[4,3-d]pyrimidine-5,7-diamine] the EC50 [1] was 345 nM and the EC50 [2] was 299 nM.
With `COc1cc(CN2CCS(=O)(=O)CC2)ccc1Cn1ncc2nc(N)nc(NCc3noc(C)n3)c21` [Compound 121, 4-({4-[(5-amino-7-{[(5-methyl-1,2,4-oxadiazol-3-yl)methyl]amino}-1H-pyrazolo[4,3-d]pyrimidin-1-yl)methyl]-3-methoxyphenyl}methyl)-1λ^6-thiomorpholine-1,1-dione] the EC50 [1] was 656 nM and the EC50 [2] was 289 nM.
In the case of `COc1cc(CNC2CN(S(C)(=O)=O)C2)ccc1Cn1ncc2nc(N)nc(NCc3noc(C)n3)c21` [Compound 122, 1-[(4-{[(1-methanesulfonylazetidin-3-yl)amino]methyl}-2-methoxyphenyl)methyl]-N7-[(5-methyl-1,2,4-oxadiazol-3-yl)methyl]-1H-pyrazolo[4,3-d]pyrimidine-5,7-diamine], the EC50 [1] is reported as 570 nM and the EC50 [2] is reported as 221 nM.
In the case of `COc1cc(CNC2CCN(S(C)(=O)=O)CC2)ccc1Cn1ncc2nc(N)nc(NCc3noc(C)n3)c21` [Compound 123, 1-[(4-{[(1-methanesulfonylpiperidin-4-yl)amino]methyl}-2-methoxyphenyl)methyl]-N7-[(5-methyl-1,2,4-oxadiazol-3-yl)methyl]-1H-pyrazolo[4,3-d]pyrimidine-5,7-diamine], the EC50 [1] is reported as 196 nM and the EC50 [2] is reported as 18.2 nM.
Molecule `COc1cc(CN2CC(OC)C2)ccc1Cn1ncc2nc(N)nc(N[C@H](CO)CC3CC3)c21` [Compound 125, (2S)-2-{[5-amino-1-({2-methoxy-4-[(3-methoxyazetidin-1-yl)methyl]phenyl}methyl)-1H-pyrazolo[4,3-d]pyrimidin-7-yl]amino}-3-cyclopropylpropan-1-ol] has an EC50 [1] of 138 nM and an EC50 [2] of 15.2 nM.
Molecule `COc1cc(CN2CCN(CCO)CC2)ccc1Cn1nc(C)c2nc(N)nc(NCC[C@H](O)C3CC3)c21` [Compound 126, (1S)-3-({5-amino-1-[(4-{[4-(2-hydroxyethyl)piperazin-1-yl]methyl}-2-methoxyphenyl)methyl]-3-methyl-1H-pyrazolo[4,3-d]pyrimidin-7-yl}amino)-1-cyclopropylpropan-1-ol] has an EC50 [1] of 740 nM and an EC50 [2] of 25.3 nM.
Molecule `COc1cc(CNC2CCOCC2)ccc1Cn1ncc2nc(N)nc(NCc3noc(C4CC4)n3)c21` [Compound 127, N7-[(5-cyclopropyl-1,2,4-oxadiazol-3-yl)methyl]-1-[(2-methoxy-4-{[(oxan-4-yl)amino]methyl}phenyl)methyl]-1H-pyrazolo[4,3-d]pyrimidine-5,7-diamine] has an EC50 [1] of 72.4 nM and an EC50 [2] of 25.5 nM.
With `COc1cc(CN2CCN(CCO)CC2)ccc1Cn1ncc2nc(N)nc(NCc3noc(C4CC4)n3)c21` [Compound 128, 2-[4-({4-[(5-amino-7-{[(5-cyclopropyl-1,2,4-oxadiazol-3-yl)methyl]amino}-1H-pyrazolo[4,3-d]pyrimidin-1-yl)methyl]-3-methoxyphenyl}methyl)piperazin-1-yl]ethan-1-ol] the EC50 [1] was 33.7 nM and the EC50 [2] was 7.5 nM.
Molecule `COc1cc(CN2CCN(C)CC2)ccc1Cn1ncc2nc(N)nc(NCc3noc(C4CC4)n3)c21` [Compound 129, N7-[(5-cyclopropyl-1,2,4-oxadiazol-3-yl)methyl]-1-({2-methoxy-4-[(4-methylpiperazin-1-yl)methyl]phenyl}methyl)-1H-pyrazolo[4,3-d]pyrimidine-5,7-diamine] has an EC50 [1] of 47.8 nM and an EC50 [2] of 5.3 nM.
